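Five concentrations, 48 hours, 96-well plates. GI50 marks 50% less growth. Definition used: TGI = concentration required for complete inhibition of growth.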
Experiments:
Assay in all cases: NCI tumour cell line growth inhibition, 48 h
[1] = test system: SNB-75 CNS
[2] = test system: CCRF-CEM leukemia
[3] = test system: MDA-MB-231 breast
[4] = test system: OVCAR-8 ovarian
[5] = test system: NCI/ADR-RES ovarian
[6] = test system: DU-145 prostate
[7] = test system: SF-268 CNS
[8] = test system: NCI-H522 lung
[9] = test system: SK-MEL-2 melanoma
[10] = test system: SK-OV-3 ovarian
[11] = test system: CAKI-1 renal
[12] = test system: T-47D breast
[13] = test system: NCI-H226 lung

Structure (SMILES)	TGI [1]	TGI [2]	TGI [3]	TGI [4]	TGI [5]	TGI [6]	TGI [7]	TGI [8]	TGI [9]	TGI [10]	TGI [11]	TGI [12]	TGI [13]	GI50 [10]
N#Cc1c(N2CCN(c3ccc([N+](=O)[O-])cc3)CC2)[n+](=O)c2ccccc2n1[O-]	> 100 µM	> 100 µM	> 100 µM	> 100 µM	> 100 µM	> 100 µM	0.921 µM	> 100 µM	> 100 µM	> 100 µM	> 100 µM	> 100 µM		
C=CCCCCCCCCC(=O)O	468 µM	292 µM		283 µM	558 µM		254 µM	209 µM	152 µM	294 µM	214 µM		394 µM	
N#Cc1ccc(C2NN=CC23C(=O)c2ccccc2OC3c2ccccc2)cc1 (stereo unspecified)		> 100 µM	> 100 µM	> 100 µM	> 100 µM	> 100 µM	> 100 µM	54.4 µM	> 100 µM	> 100 µM	> 100 µM		> 100 µM	
Clc1c2ccccc2nc2c1[nH]c1ccccc12	> 100 µM	> 100 µM	46.7 µM	> 100 µM	89.7 µM	> 100 µM	> 100 µM	> 100 µM	> 100 µM		65.2 µM	> 100 µM		
O=c1c2c(c1=O)-c1ccccc1CN2	> 100 µM	> 100 µM		> 100 µM			> 100 µM	> 100 µM	> 100 µM	> 100 µM	> 100 µM		> 100 µM	
Cc1ccc(-c2cc(-c3ccco3)c(C#N)c(=O)n2C2OC(CO)C(O)C(O)C2O)cc1 (stereo unspecified)		> 100 µM		> 100 µM			> 100 µM	> 100 µM		59.8 µM			> 100 µM	
CC[C@H](C)[C@H](NC(=O)[C@@]1(O)[C@H](O)[C@]2(CC)C=CCN3CC[C@@]4(c5cc(Br)c(OC)cc5N(C)[C@@H]14)[C@@H]32)C(=O)OC		67.3 µM	46.5 µM	> 100 µM	> 100 µM	> 100 µM	> 100 µM	> 100 µM	> 100 µM	> 100 µM	> 100 µM	> 100 µM		
CC(=O)Nc1ccc(Sc2nnc(NC(C)=O)s2)cc1	> 100 µM	> 100 µM	> 100 µM	> 100 µM	> 100 µM		> 100 µM	> 100 µM		> 100 µM		> 100 µM		
COC(=O)C1=C(CCC[C@H](C)O[Si](C)(C)C(C)(C)C)NC(=O)N2[C@@H](CCO)CC[C@H]12	30.5 µM		31.9 µM	29.5 µM	29.1 µM	44.4 µM	28.6 µM	19.2 µM		30.4 µM	37.9 µM	32.9 µM	32.4 µM	
COc1ccc(-c2cc(=O)c3c(O)cc(O)cc3o2)c(OC)c1OC	> 100 µM	> 100 µM					> 100 µM	> 100 µM	> 100 µM	> 100 µM	> 100 µM		> 100 µM	
CCOC(=O)C1(Br)S(=O)(=O)OCCOS1(=O)=O	> 100 µM	> 100 µM		> 100 µM			> 100 µM	> 100 µM	> 100 µM	> 100 µM			> 100 µM	
O=c1c([OH2+])c(-c2ccc(O)cc2[O-])oc2cc(O)cc([O-])c12.O=c1c([OH2+])c(-c2ccc(O)cc2[O-])oc2cc(O)cc([O-])c12.[Ti+4]	> 100 µM	> 100 µM		> 100 µM			> 100 µM	> 100 µM	> 100 µM	> 100 µM	> 100 µM		> 100 µM	> 100 µM
O=c1c2cc(I)ccc2nc(-c2cccs2)n1/N=C/c1ccccc1	> 100 µM	> 100 µM		> 100 µM	> 100 µM	> 100 µM	> 100 µM	> 100 µM	> 100 µM	> 100 µM	> 100 µM	> 100 µM	> 100 µM	
CCCNC(=O)N1CC(CN2CCN(c3ccccc3)CC2)O/C1=N/C(=O)Nc1ccccc1 (stereo unspecified)	> 100 µM		> 100 µM		> 100 µM	> 100 µM	> 100 µM	> 100 µM	> 100 µM	> 100 µM	> 100 µM	> 100 µM		
CC(=O)OCC1OC(n2nc(Cc3ccccc3)c(=S)[nH]c2=S)C(OC(C)=O)C(OC(C)=O)C1OC(C)=O (stereo unspecified)	39.8 µM		30.6 µM	58.4 µM	> 100 µM	64.3 µM	52.2 µM	47.5 µM	35.1 µM	> 100 µM	> 100 µM	60.2 µM	> 100 µM	
[N-]=[N+]=CC(=O)CCC(=O)N(c1ccccc1)c1ccccc1	> 10 µM	> 10 µM	> 10 µM	> 10 µM		> 10 µM	> 10 µM		> 10 µM	> 10 µM		> 10 µM	> 10 µM	
COC(=O)C1C=CCON2CCc3c(n(S(=O)(=O)c4ccccc4)c4ccccc34)C12 (stereo unspecified)	> 100 µM	> 71.1 µM		> 100 µM			> 100 µM	> 62.5 µM	> 100 µM	> 85.7 µM	98.7 µM		> 91.1 µM	
NC(Cc1ccc(B(O)O)cc1)C(=O)NC(CO)CO (stereo unspecified)	> 100 µM	> 100 µM	> 100 µM	> 100 µM	> 100 µM		> 100 µM	> 100 µM	> 100 µM	> 100 µM	> 100 µM		> 100 µM	
CC1=C2C3OC(=O)C(C)C3CCC2(C)C=CC1=Nc1ccccc1 (stereo unspecified)	> 100 µM	> 100 µM		> 100 µM	> 100 µM		> 100 µM	> 100 µM	> 100 µM	> 100 µM			> 100 µM	
CC1=CCC2CC1NC(=O)CCOCCC(=O)NC2(C)C (stereo unspecified)		> 100 µM	> 100 µM	> 100 µM	> 100 µM	> 100 µM	> 100 µM	> 100 µM	> 100 µM	> 100 µM	> 100 µM		> 100 µM	
COc1cc(C2c3c(ccc4ccccc34)C(=O)C3CCC(=O)N32)cc(OC)c1O (stereo unspecified)	> 25 µM	> 25 µM		> 25 µM	> 25 µM	> 25 µM			> 25 µM	> 25 µM		> 25 µM	> 25 µM	

Structure (SMILES)	TGI [1]	TGI [2]	TGI [3]	TGI [4]	TGI [5]	TGI [6]	TGI [7]	TGI [8]	TGI [9]	TGI [10]	TGI [11]	TGI [12]	TGI [13]	GI50 [10]
O=P(O)(CN1CCN(CP(=O)(O)c2ccccc2)CCN(CP(=O)(O)c2ccccc2)CC1)c1ccccc1	> 100 µM	> 100 µM		> 100 µM	> 100 µM	> 100 µM	> 100 µM			> 100 µM	> 100 µM	> 100 µM	> 100 µM	
CC(C)[C@@H](C)[C@@]1(C)C[C@@H]1[C@@H](C)[C@H]1CC[C@@H]([C@@H]2CC=C3C[C@@H](O)CC[C@]3(C)C2=O)[C@]1(C)CCO	17.9 µM		28 µM	25.5 µM	26.6 µM	28.7 µM	30.3 µM	19.8 µM	33.3 µM		25.4 µM		26.8 µM	
COc1cc(/C=N/NC2=NCCCCN2)ccc1O	> 100 µM	> 100 µM	> 100 µM	> 100 µM	> 100 µM	> 100 µM	> 100 µM	> 100 µM	> 100 µM	> 100 µM		> 100 µM	> 100 µM	
O=c1c2ccccc2[nH]c2c(Cl)cc(Cl)c(N3CCCCC3)c12	> 100 µM	> 10 µM	> 100 µM	> 100 µM	83.4 µM			64.3 µM	59.1 µM	> 100 µM	97.1 µM	> 100 µM	62 µM	
CCOC(=O)C(=O)NC12CC3CC(CC(C3)C1)C2	> 100 µM	> 100 µM		> 100 µM			> 100 µM	> 100 µM	> 100 µM	> 100 µM	> 100 µM		> 100 µM	
CNC(=O)NS(=O)(=O)c1ccc(C)cc1	> 100 µM	> 100 µM	> 100 µM	> 100 µM	> 100 µM	> 100 µM	> 100 µM	> 100 µM	> 100 µM	> 100 µM		> 100 µM		
COC1C(O)C(C)OC(OC2CCC3(C)C(CCC4C3C(O)CC3(C)C(C5=CC(=O)OC5)CCC43O)C2)C1O (stereo unspecified)	2.78 µM		24.4 µM	1.67 µM		0.173 µM	0.532 µM	0.251 µM	1.59 µM	0.905 µM	0.469 µM	2.59 µM	2.39 µM	
Cc1nnc(Sc2nc(C#N)c(C#N)nc2Sc2nnc(C)s2)s1	> 82.3 µM	5.15 µM	37.9 µM	8.34 µM	51 µM	36.6 µM	73.2 µM		44.7 µM	34.2 µM		12.9 µM	64.1 µM	
CCCCC(=O)Nc1ccc2c(C)cc(-c3ccc(-c4cc(-c5ccc(C)cc5)cc(-c5ccc(-c6cc(C)c7ccc(NC(=O)CCCC)nc7n6)cc5)n4)cc3)nc2n1	> 100 µM	> 100 µM	> 100 µM		> 100 µM	> 100 µM	> 100 µM	> 100 µM	> 100 µM	> 100 µM	> 100 µM	> 100 µM		
CC1C(c2ccccc2O)c2cc3c(cc2OC1N1CCOCC1)OCO3 (stereo unspecified)	91.3 µM	61.3 µM	73.9 µM	> 100 µM		> 100 µM	> 100 µM	37.8 µM	72.5 µM	> 100 µM	77.5 µM	> 100 µM	77.4 µM	
C/C(Cc1ccc2c(c1)OCO2)=N\NC(=O)C(C)Sc1nnc(SC(C)C(=O)N/N=C(\C)Cc2ccc3c(c2)OCO3)s1 (stereo unspecified)	> 100 µM	> 100 µM	> 100 µM	> 100 µM	> 100 µM	> 100 µM	> 100 µM		> 100 µM	> 100 µM	> 100 µM		> 100 µM	
CCCN(CCC)C1=Nc2ccccc2-n2cnnc2C1		> 100 µM		> 100 µM			> 100 µM	> 100 µM	> 100 µM				> 100 µM	
CCOC(=O)C(CCc1ncnc2c1ncn2Cc1ccccc1)(CCc1ncnc2c1ncn2Cc1ccccc1)C(=O)OCC			> 100 µM	> 100 µM	> 100 µM	> 100 µM	> 100 µM	> 100 µM	> 100 µM		> 100 µM		> 100 µM	
O=C1c2ccccc2C(=O)c2c(NCCCN3CCOCC3)ccc(NCCCN3CCOCC3)c21	10.7 µM	> 100 µM	13.8 µM	14.1 µM		52.6 µM	20.9 µM	2.35 µM	25.5 µM		32 µM	83.9 µM	31.5 µM	
C=C1Cc2cc(OC)c(OC)c(OC)c2-c2ccc(SC)c(=O)cc21	15.1 µM	6.85 µM					1.42 µM	< 0.01 µM	< 0.01 µM	5.15 µM	6.01 µM		0.188 µM	
CN(C(=O)c1ccc(OCCCC(=O)O)c(Cl)c1Cl)C1CCCC1	> 100 µM	> 100 µM		> 100 µM	> 100 µM		> 100 µM	> 100 µM	> 100 µM	> 100 µM	> 100 µM		> 100 µM	
COC(=O)/C(C#N)=C(\N)c1c(C)c2ccccc2oc1=N	> 100 µM		> 100 µM			> 100 µM		> 100 µM	> 100 µM	> 100 µM		> 100 µM		
COc1cc(C=O)cc(O)c1O	> 100 µM	> 100 µM		> 100 µM			> 100 µM	> 100 µM		> 100 µM			> 100 µM	
Cc1cc2nc(N3C(=O)/C(=C/c4ccc(N(C)C)cc4)N=C3c3ccccc3)sc2cc1C	56.8 µM	34 µM	96 µM	> 100 µM	> 100 µM	> 100 µM	> 100 µM		65.3 µM	> 100 µM	> 100 µM	> 100 µM		
O=C1CCCc2ccc3c(c21)CC1(Cc2ccccc2C1)C3	9.64 µM		> 100 µM	> 100 µM	> 100 µM			74.3 µM	> 100 µM	> 100 µM		> 100 µM	67.3 µM	

— PubChem BioAssay (NCI)
